Measured values: US5834491A, “Bis(2-aminopyridine)s, preparation method therefor and use thereof for controlling parasitic infections” (priority 1994, dated 1998)
Structures can show the parent of a compound that is named as a salt. Where two headings read alike, the source gives them in different places.

Tested on: Plasmodium falciparum
Test: Antimalarial activity in vitro towards Plasmodium falciparum ([3H]hypoxanthine incorporation, infected human erythrocytes)
Assay type: cell-based
Conditions: Erythrocyte, approximately 48 hours, Table I
Description: Evaluation of the antimalarial activity in vitro is carried out according to the method of DESJARDINS, CANFIELD, HATNES and CHULAY (Antimicrob. Agents Chemother., 1979, 16, 710-718). A compound according to the invention is brought into contact for approximately 48 hours with human erythrocytes infected with Plasmodium falciparum. When a radioactive nucleic acid precursor, hypoxanthine, is added to the preparation, only erythrocytes infected with Plasmodium and not affected by the said compound incorporate this precursor. […] The results are presented in Table I below, in the form of an IC50 (or ED50) (concentration of compound capable of inhibiting in vitro the growth of the parasites by 50%).
The derivatives according to the above examples are tested at three concentrations, 100, 33 and 10 nanomolar.

[1] = 33 nM, read-out: Plasmodium IC50 in vitro resp. at 33 nM
[2] = 100 nM, read-out: Plasmodium IC50 in vitro resp. 100 nM

SMILES	IC50 upper bound (active at tested concentration) [1] [nM]	IC50 upper bound (active at tested concentration) [2] [nM]
Cc1ccc(=N)n(CCCCCCCCn2cc(C)ccc2=N)c1 [Example 12, 1,1'-(1,8-octanediyl)bis(5-methyl-2(1H)-pyridinimine) dihydrobromide]	> 33	< 100
Cc1cc(C)n(CCCCCCCCCCCCn2c(C)cc(C)cc2=N)c(=N)c1 [Example 21, 1,1'-(1,12-dodecanediyl)bis(4,6-dimethyl-2(1H)-pyridinimine)]	< 33	< 100
Cc1ccn(CCCCCCCCn2ccc(C)cc2=N)c(=N)c1 [Example 13]	< 33	< 100
Cc1ccn(CCCCCCCCCCCCCCCCn2ccc(C)cc2=N)c(=N)c1 [Example 15, 1,1'-(1,16-hexadecanediyl)bis(4-methyl-2(1H)-pyridiniminedihydrobromide]	< 33	< 100
N=c1cc(Br)ccn1CCCCCCCCCCCCn1ccc(Br)cc1=N [Example 10, 1,1'-(1,12-dodecanediyl)bis(4-bromo-2(1H)-pyridinimine) dihydrobromide]	< 33	< 100
Cc1ccn(CCCCCCn2ccc(C)cc2=N)c(=N)c1 [Example 14, 1,1'-(1,6-hexanediyl)bis(4-methyl-2(1H)-pyridinimine) dihydrobromide]	> 33	< 100
CCc1ccn(CCCCCCCCCCCCn2ccc(CC)cc2=N)c(=N)c1 [Example 24, 1,1'-(1,12-dodecanediyl)bis(4-ethyl-2(1H)-pyridinimine)]		> 100
Cc1ccc(=N)n(CCCCCCCCCCCCn2c(C)c(C)ccc2=N)c1C [Example 22, 1,1'-(1,12-dodecanediyl)bis(5,6-dimethyl-2(1H)-pyridinimine)]	< 33	< 100
CCCCc1cccn(CCCCCCCCCCCCn2cccc(CCCC)c2=N)c1=N [Example 8, 1,1'-(1,12-dodecanediyl)bis(3-n-butyl-2(1H)-pyridinimine) dihydrobromide]	< 33	< 100
N=c1c(Cl)cc(C(F)(F)F)cn1CCCCCCCCCCCCn1cc(C(F)(F)F)cc(Cl)c1=N [Example 11, 1,1'-(1,12-dodecanediyl)bis(3-chloro-5-trifluoromethyl-2(1H)-pyridinimine) dihydrobromide]	< 33	< 100
N=c1ccc(-c2ccccc2)cn1CCCCCCCCCCCCn1cc(-c2ccccc2)ccc1=N [Example 5, 1,1'-(1,12-dodecanediyl)bis(5-phenyl-2(1H)-pyridinimine) dihydrobromide]	< 33	< 100
Cc1cccc(=N)n1CCCCCCCCCCCCn1c(C)cccc1=N [Example 4, 1,1'-(1,12-dodecanediyl)bis(6-methyl-2(1H)-pyridinimine) dihydrobromide]	< 33	< 100
CCc1ccn(CCCCCCCCCCCCCCCCn2ccc(CC)cc2=N)c(=N)c1 [Example 16, 1,1'-(1,16-hexadecanediyl)bis(4-ethyl-2(1H)-pyridinimine) dihydrobromide]	> 33	< 100
Cc1ccc(-c2ccn(CCCCCCCCCCCCn3ccc(-c4ccc(C)cc4)cc3=N)c(=N)c2)cc1 [Example 7, 1,1'-(1,12-dodecanediyl)bis(4-(4-methyl-phenyl)-2(1H)-pyridinimine) dihydrobromide]	< 33	< 100
CCc1cccc(=N)n1CCCCCCCCCCCCn1c(CC)cccc1=N [Example 26, 1,1'-(1,12-dodecanediyl)bis(6-ethyl-2(1H)-pyridinimine)]	< 33	< 100
